From patent US11053259B2, “Crystal of cephalosporin intermediate 7α-methoxy cephalothin and method for preparing same” (QILU ANTIBIOTICS PHARMACEUTICAL CO. LTD., priority 2017, dated 2021)
Counter-ions that a name gives are not always drawn.

How the values were obtained:
[1] = 6-month accelerated comparative study on stability; format: physicochemical; settings: for Appearance / Content / Moisture: 25° C. and RH of 60%
[2] = hygroscopicity and storage stability of the cyclohexylamine salt (statement on existing technology); format: physicochemical

SMILES	stability of appearance, hygroscopicity and content (overall result in words) ([1]; 6-month accelerated testing)	storage stability [2]	Appearance ([1]; Month 0)	Content ([1]; Month 0) [%]	Moisture ([1]; Month 0) [%]	Appearance ([1]; Month 1)	Content ([1]; Month 1) [%]	Moisture ([1]; Month 1) [%]	Appearance ([1]; Month 2)	Content ([1]; Month 2) [%]	Moisture ([1]; Month 2) [%]	Appearance ([1]; Month 3)	Content ([1]; Month 3) [%]	Moisture ([1]; Month 3) [%]	Appearance ([1]; Month 6)	Content ([1]; Month 6) [%]	Moisture ([1]; Month 6) [%]	hygroscopicity [2]
CO[C@@]1(NC(=O)Cc2cccs2)C(=O)N2C(C(=O)O)=C(COC(C)=O)CS[C@@H]21 [listing 1 of 2 here]	better purity and quality stability																	
CO[C@@]1(NC(=O)Cc2cccs2)C(=O)N2C(C(=O)O)=C(COC(C)=O)CS[C@@H]21 [listing 2 of 2 here]		poor storage stability																
CO[C@@]1(NC(=O)Cc2cccs2)C(=O)N2C(C(=O)O)=C(COC(C)=O)CS[C@@H]21 [Crystal of 7α-Methoxy Cephalothin, (6R, 7S)-3-acetyloxymethyl-7-methoxy-8-oxo-7-[2-(2-thienyl)acetamido]-5-thia-1-nitrobicyclo [4.2.0] oct-2-ene-2-carboxylic acid]			Off-white	98.2	0.26	Off-white	98.2	0.27	Off-white	98.1	0.27	Off-white	98.1	0.29	Off-white	97.9	0.28	
CO[C@@]1(NC(=O)Cc2cccs2)C(=O)N2C(C(=O)O)=C(COC(C)=O)CS[C@@H]21 [Cyclohexylamine Salt of 7α-Methoxy Cephalothin]			Off-white	78.4	0.13	Light	77.5	0.87	Yellow	76.3	1.56	Yellow	75.1	1.84	Earthy	72.4	2.55	strong hygroscopicity
